Assay: Dynamic light scattering of nanoparticles
Type: physicochemical
Conditions: self-assembled in aqueous solution
Procedure: The foregoing amphiphilic nonsteroid anti-inflammatory platinum is dissolved in DMF, dropped into an aqueous solution at room temperature, and the DMF is removed by dialysis to obtain an amphiphilic nonsteroid anti-inflammatory platinum nanoparticle solution. The dynamic light scattering results of the antitumor cisplatin-tonifamic acid nanoparticles prepared in this embodiment are shown in FIG. 3, and the means particle size of the nanoparticles is 157 nm.
CDDP (150 mg), AgNO3 (113 mg), tolfenamic acid (131 mg) and Na2CO3 (35.3 mg) are added to a round-bottom flask, then 10 ml of water is added and stirred at room temperature for 24 h in a dark place. The AgCl precipitate is centrifugally discarded, and the filtrate is dried in vacuum. The crude product is purified by silica gel column chromatography using an eluent of methanol:chloroform=1:9 to obtain the cisplatin-tolfenamic acid-based complex in a yield of 53%. The chemical structure of the complex synthesized in this embodiment is as shown in Formula 1. […]

SMILES: Cc1c(Cl)cccc1[N]1c2ccccc2C(=O)[O][Pt]1([NH2])[NH2] [Embodiment 1, cisplatin-tolfenamic acid-based complex]
- means particle size of the nanoparticles: 157 nm
